Measured values: patent US20240287048A1, “SUBSTITUTED ACYL SULFONAMIDES FOR TREATING CANCER” (The Broad Institute, Inc., priority 2020, published 2024)

Assays:
[1] = biological target: T1, KAT6B (Homo sapiens, UniProt Q8WYB5); experiment: Kat6b activity assay (TR-FRET, acetylation of biotinylated histone H4 peptide); format: biochemical; conditions: recombinant human GST-tagged Kat6b (431-end), 30 mins at 22° C., read-out: KAT6B activity assay IC50 [mol/l] (arithmetic mean)
T1 construct: fused on or other part: N-terminal GST tag
T1 sequence (Q8WYB5 723-2073 limits assumed): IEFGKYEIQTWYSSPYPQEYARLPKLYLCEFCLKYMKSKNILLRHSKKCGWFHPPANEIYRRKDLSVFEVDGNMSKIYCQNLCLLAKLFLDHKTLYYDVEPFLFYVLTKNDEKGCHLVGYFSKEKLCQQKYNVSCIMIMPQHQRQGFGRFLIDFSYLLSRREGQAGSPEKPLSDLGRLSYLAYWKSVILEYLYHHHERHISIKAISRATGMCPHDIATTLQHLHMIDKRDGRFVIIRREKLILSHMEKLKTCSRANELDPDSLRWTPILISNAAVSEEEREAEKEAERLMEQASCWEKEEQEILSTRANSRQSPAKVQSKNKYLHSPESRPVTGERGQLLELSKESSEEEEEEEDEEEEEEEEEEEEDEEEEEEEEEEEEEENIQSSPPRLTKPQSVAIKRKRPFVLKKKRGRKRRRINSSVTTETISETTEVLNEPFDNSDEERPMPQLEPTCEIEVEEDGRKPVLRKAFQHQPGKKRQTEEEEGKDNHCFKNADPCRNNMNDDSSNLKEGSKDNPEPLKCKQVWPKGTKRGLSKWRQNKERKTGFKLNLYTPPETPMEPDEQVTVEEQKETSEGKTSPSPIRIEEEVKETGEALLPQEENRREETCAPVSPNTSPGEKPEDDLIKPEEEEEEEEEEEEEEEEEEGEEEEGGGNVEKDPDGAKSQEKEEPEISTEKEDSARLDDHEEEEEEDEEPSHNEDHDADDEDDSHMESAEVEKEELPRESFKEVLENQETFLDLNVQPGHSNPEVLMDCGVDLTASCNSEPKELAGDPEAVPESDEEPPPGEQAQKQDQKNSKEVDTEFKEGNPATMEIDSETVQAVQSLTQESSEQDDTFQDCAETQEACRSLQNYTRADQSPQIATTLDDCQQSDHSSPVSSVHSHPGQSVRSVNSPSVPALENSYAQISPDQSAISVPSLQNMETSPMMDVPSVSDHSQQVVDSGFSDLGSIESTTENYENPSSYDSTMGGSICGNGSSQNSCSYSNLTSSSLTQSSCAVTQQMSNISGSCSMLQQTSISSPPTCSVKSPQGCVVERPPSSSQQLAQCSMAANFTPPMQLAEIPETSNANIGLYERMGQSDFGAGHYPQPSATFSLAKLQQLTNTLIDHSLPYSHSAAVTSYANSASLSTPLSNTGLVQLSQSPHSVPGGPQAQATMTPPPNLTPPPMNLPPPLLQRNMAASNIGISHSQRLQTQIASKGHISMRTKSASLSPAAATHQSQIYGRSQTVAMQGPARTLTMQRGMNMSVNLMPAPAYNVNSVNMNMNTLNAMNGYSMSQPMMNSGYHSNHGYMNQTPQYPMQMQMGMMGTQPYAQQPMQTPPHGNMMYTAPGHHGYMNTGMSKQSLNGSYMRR

[2] = test system: ZR-75-1 cells; experiment: Proliferation assay in ZR-75-1 cells; format: cell-based; conditions: Homo sapiens, 144 h, Alamar Blue, read-out: ZR75-1 proliferation assay, EC50[M] (arithmetic mean)
Procedure, shortened: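 KAT6A-amplified ZR-75-1 cells (RPMI 1640, 2.5% FBS) and KAT6A-low MDA-MB-436 cells (DMEM/Ham's F12, 2.5% FBS) were seeded at 3000 cells/well. Treatment lasted 144 h at 37 °C, 5% CO2, in triplicate. Viability was read by Alamar Blue (2 h) fluorescence at […].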

[3] = test system: Salmonella tester strain TA100; experiment: Bacterial reverse gene mutation test Ames MPF Penta I, TA100; format: cell-based
Excerpt: (§1) The employed commercial assay Ames MPF Penta I comprises the histidine auxotrophic Salmonella tester strains TA98, TA100, TA1535, TA1537 and two tryptophan auxotrophic tester strains E. coli wp2 (E. coli wp2 [pKM101] and E. coli wp2 uvrA, combined exposure). These strains meet the requirements of the OECD guideline 471 for testing chemicals.
(§2) Bacterial strains were exposed to various concentrations of the test compounds in a histidine (His) or tryptophane (Trp) deficient medium. As recommended by ICH S2(R1) guideline, the test was conducted in two assay conditions, with and without addition of microsomal enzymes (S9 mix), taking the potential formation of DNA reactive metabolites via xenobiotic biotransformation into account.
(§3) The potential of the test compound to induce gene mutations is assessed by comparing the control with the test compounds treated bacterial cultures.

[4] = test system: Salmonella tester strain TA1537; experiment: Bacterial reverse gene mutation test Ames MPF Penta I, TA1537; format: cell-based
Excerpt: as §1, §2, §3

## O=C(NS(=O)(=O)c1ccccc1-c1ccccc1)c1cc2ccc(C3CC3)cc2o1 [Example 16, N-([1,1′-biphenyl]-2-sulfonyl)-6-cyclopropyl-1-benzofuran-2-carboxamide]
[1]
  IC50: 0.104 µM
[2]
  EC50: 5.93e-06 M
[3]; with addition of S9 mix
  Result of the bacterial reverse gene mutation test Ames MPF Penta I, TA100: negative
[3]; without addition of S9 mix
  Result of the bacterial reverse gene mutation test Ames MPF Penta I, TA100: negative
[4]; with addition of S9 mix
  Result of the bacterial reverse gene mutation test Ames MPF Penta I, TA1537: negative
[4]; without addition of S9 mix
  Result of the bacterial reverse gene mutation test Ames MPF Penta I, TA1537: negative

## CCOc1ccccc1S(=O)(=O)NC(=O)c1cc2ccc(C(C)C)cc2o1 [Example 55, N-(2-Ethoxybenzenesulfonyl)-6-(propan-2-yl)-1-benzofuran-2-carboxamide]
[1]
  IC50: 0.538 µM
[2]
  EC50: 1.27e-05 M
[3]; with addition of S9 mix
  Result of the bacterial reverse gene mutation test Ames MPF Penta I, TA100: negative
[3]; without addition of S9 mix
  Result of the bacterial reverse gene mutation test Ames MPF Penta I, TA100: negative
[4]; with addition of S9 mix
  Result of the bacterial reverse gene mutation test Ames MPF Penta I, TA1537: negative
[4]; without addition of S9 mix
  Result of the bacterial reverse gene mutation test Ames MPF Penta I, TA1537: negative
